Results as given in PubChem BioAssay AID1963870 (Molecular Pharmacology Branch, DTP, NCI, 2024).

System: 292921-168-R-J2-PDC KRAS tumor spheroid viability
Experiment: Anticancer human tumor 292921-168-R-J2-PDC patient-derived pancreatic carcinoma cell line growth inhibition [KRAS2]
Details: spheroids with HUVEC and MSC; for viability, T/C: stronger effect = lower value
How it was run: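 Combination screen of spheroid viability in tumor-cell co-cultures with endothelial (HUVEC) and mesenchymal stem cell stroma. Each agent was tested in half-log dilutions, topping at clinical Cmax or at 10 microM without a known Cmax.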

[1] = curve of first compound, second compound 0.1 µM
[2] = curve of first compound, second compound 0.316 µM
[3] = curve of first compound, second compound 1 µM
[4] = curve of first compound, second compound 3.16 µM
[5] = curve of first compound, second compound 10 µM
[6] = second compound 0.1 µM, first compound 0.0316 µM
[7] = second compound 0.1 µM, first compound 0.1 µM
[8] = second compound 0.1 µM, first compound 0.316 µM
[9] = second compound 0.1 µM, first compound 1 µM
[10] = second compound 0.1 µM, first compound 3.16 µM
[11] = second compound 0.1 µM, first compound 10 µM
[12] = second compound 0.316 µM, first compound 0.0316 µM
[13] = second compound 0.316 µM, first compound 0.1 µM
[14] = second compound 0.316 µM, first compound 0.316 µM
[15] = second compound 0.316 µM, first compound 1 µM
[16] = second compound 0.316 µM, first compound 3.16 µM
[17] = second compound 0.316 µM, first compound 10 µM
[18] = second compound 1 µM, first compound 0.0316 µM
[19] = second compound 1 µM, first compound 0.1 µM
[20] = second compound 1 µM, first compound 0.316 µM
[21] = second compound 1 µM, first compound 1 µM
[22] = second compound 1 µM, first compound 3.16 µM
[23] = second compound 1 µM, first compound 10 µM
[24] = second compound 3.16 µM, first compound 0.0316 µM
[25] = second compound 3.16 µM, first compound 0.1 µM
[26] = second compound 3.16 µM, first compound 0.316 µM
[27] = second compound 3.16 µM, first compound 1 µM
[28] = second compound 3.16 µM, first compound 3.16 µM
[29] = second compound 3.16 µM, first compound 10 µM
[30] = second compound 10 µM, first compound 0.0316 µM
[31] = second compound 10 µM, first compound 0.1 µM
[32] = second compound 10 µM, first compound 0.316 µM
[33] = second compound 10 µM, first compound 1 µM
[34] = second compound 10 µM, first compound 3.16 µM
[35] = second compound 10 µM, first compound 10 µM
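Further: drug exposure lasted seven days after spheroids formed for three days.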
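Wherever viability, T/C is given: percent of DMSO vehicle control viability which is 100%.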

In the case of `O=C(c1cc(Cc2n[nH]c(=O)c3ccccc23)ccc1F)N1CCN(C(=O)C2CC2)CC1` + C=CC(=O)N1CCN(c2nc(=O)n(-c3c(C)ccnc3C(C)C)c3nc(-c4c(O)cccc4F)c(F)cc23)C(C)C1, the IC50 [1] is reported as 7630 nM, the IC50 [2] is reported as 8380 nM and the IC50 [3] is reported as 6670 nM. For the same compound, the IC50 [4] was 1020 nM, the IC50 [5] was under 31.6 nM and the viability, T/C [6] was 97.8%. The viability, T/C [7] was 87%, the viability, T/C [8] was 88% and the viability, T/C [9] was 84.1%. The viability, T/C [10] was 76.8%, the viability, T/C [11] was 41.9% and the viability, T/C [12] was 90.8%. For the same compound, the viability, T/C [13] was 82.1%, the viability, T/C [14] was 79.4% and the viability, T/C [15] was 85.9%. For the same compound, the viability, T/C [16] was 75.7%, the viability, T/C [17] was 45.1% and the viability, T/C [18] was 77%. The viability, T/C [19] was 72.3%, the viability, T/C [20] was 76.2% and the viability, T/C [21] was 84.2%. It also gave a viability, T/C [22] of 62.1%, a viability, T/C [23] of 41% and a viability, T/C [24] of 64%. For the same compound, the viability, T/C [25] was 59.5%, the viability, T/C [26] was 56.7% and the viability, T/C [27] was 47.5%. It also gave a viability, T/C [28] of 46.7%, a viability, T/C [29] of 38.2% and a viability, T/C [30] of 27.3%. The viability, T/C [31] was 25.9%, the viability, T/C [32] was 28.2% and the viability, T/C [33] was 28.9%. The viability, T/C [34] was 32% and the viability, T/C [35] was 29.1%.
In the case of `COC(=O)c1ccc2c(C(=Nc3ccc(N(C)C(=O)CN4CCN(C)CC4)cc3)c3ccccc3)c(O)[nH]c2c1` + CNCc1ccccc1-c1csc(C(C)Nc2nc(C)nc3cc(OC)c(OC)cc23)c1, the IC50 [1] is reported as 538 nM, the IC50 [2] is reported as 516 nM and the IC50 [3] is reported as 407 nM. The IC50 [4] was under 31.6 nM, the IC50 [5] was under 31.6 nM and the viability, T/C [6] was 101%. For the same compound, the viability, T/C [7] was 92.9%, the viability, T/C [8] was 64.5% and the viability, T/C [9] was 31.9%. It also gave a viability, T/C [10] of 10.4%, a viability, T/C [11] of 0.5% and a viability, T/C [12] of 90.5%. The viability, T/C [13] was 88.1%, the viability, T/C [14] was 64.2% and the viability, T/C [15] was 28.8%. It also gave a viability, T/C [16] of 13.5%, a viability, T/C [17] of 0.68% and a viability, T/C [18] of 106%. It also gave a viability, T/C [19] of 88.3%, a viability, T/C [20] of 52.5% and a viability, T/C [21] of 32.1%. The viability, T/C [22] was 4.65%, the viability, T/C [23] was 0.52% and the viability, T/C [24] was 0.14%. It also gave a viability, T/C [25] of 0.23%, a viability, T/C [26] of 0.19% and a viability, T/C [27] of 0.33%. The viability, T/C [28] was 0.3%, the viability, T/C [29] was 0.68% and the viability, T/C [30] was 0.2%. The viability, T/C [31] was 0.22%, the viability, T/C [32] was 0.19% and the viability, T/C [33] was 0.16%. It also gave a viability, T/C [34] of 0.13% and a viability, T/C [35] of 0.35%.
Work on `CC1OCC2(CCN(c3cnc(Sc4ccnc(N)c4Cl)c(N)n3)CC2)C1N` (centres undefined) + COc1cc2nc(C)nc(NC(C)c3cc(N)cc(C(F)(F)F)c3)c2cc1OC1CCOC1 yielded an IC50 [1] of 242 nM, an IC50 [2] of 127 nM and an IC50 [3] of 102 nM. For the same compound, the IC50 [4] was 53 nM, the IC50 [5] was under 31.6 nM and the viability, T/C [6] was 70.2%. It also gave a viability, T/C [7] of 60.1%, a viability, T/C [8] of 46.6% and a viability, T/C [9] of 36.8%. For the same compound, the viability, T/C [10] was 30.2%, the viability, T/C [11] was 26.9% and the viability, T/C [12] was 69.2%. It also gave a viability, T/C [13] of 53%, a viability, T/C [14] of 39.9% and a viability, T/C [15] of 33.1%. For the same compound, the viability, T/C [16] was 29.2%, the viability, T/C [17] was 26.1% and the viability, T/C [18] was 62.4%. The viability, T/C [19] was 51%, the viability, T/C [20] was 36.1% and the viability, T/C [21] was 31.1%. The viability, T/C [22] was 26.3%, the viability, T/C [23] was 24.3% and the viability, T/C [24] was 56.1%. It also gave a viability, T/C [25] of 42.4%, a viability, T/C [26] of 33.5% and a viability, T/C [27] of 27.5%. For the same compound, the viability, T/C [28] was 23.8%, the viability, T/C [29] was 21.7% and the viability, T/C [30] was 23.1%. The viability, T/C [31] was 20.2%, the viability, T/C [32] was 17.4% and the viability, T/C [33] was 14.2%. It also gave a viability, T/C [34] of 15.4% and a viability, T/C [35] of 13.2%.
With `C=CC(=O)N1CCN(c2nc(OCC3CCCN3C)nc3c2CCN(c2cccc4cccc(C)c24)C3)CC1CC#N` (centres undefined) the IC50 (compound alone, run of 08/26/2021) was 821 nM [middle of 5 runs] and the IC50 (compound alone, run of 09/02/2021) was 647 nM [middle of 5 runs].
`CC(=O)Nc1cccc(-n2c(=O)n(C3CC3)c(=O)c3c(Nc4ccc(I)cc4F)n(C)c(=O)c(C)c32)c1` + CC1OCC2(CCN(c3cnc(Sc4ccnc(N)c4Cl)c(N)n3)CC2)C1N gave an IC50 [1] of under 0.1 nM, an IC50 [2] of under 0.1 nM and an IC50 [3] of under 0.1 nM. The IC50 [4] was under 0.1 nM, the IC50 [5] was under 0.1 nM and the viability, T/C (second compound 0.1 µM, first compound 0.0001 µM) was 48.8%. It also gave a viability, T/C (second compound 0.1 µM, first compound 0.000316 µM) of 28.9%, a viability, T/C (second compound 0.1 µM, first compound 0.001 µM) of 18.2% and a viability, T/C (second compound 0.1 µM, first compound 0.00316 µM) of 14.6%. It also gave a viability, T/C (second compound 0.1 µM, first compound 0.01 µM) of 10.5%, a viability, T/C [6] of 8.15% and a viability, T/C (second compound 0.316 µM, first compound 0.0001 µM) of 35.4%. For the same compound, the viability, T/C (second compound 0.316 µM, first compound 0.000316 µM) was 27.8%, the viability, T/C (second compound 0.316 µM, first compound 0.001 µM) was 15.6% and the viability, T/C (second compound 0.316 µM, first compound 0.00316 µM) was 11.9%. The viability, T/C (second compound 0.316 µM, first compound 0.01 µM) was 9.03%, the viability, T/C [12] was 7.3% and the viability, T/C (second compound 1 µM, first compound 0.0001 µM) was 30.1%. It also gave a viability, T/C (second compound 1 µM, first compound 0.000316 µM) of 17.7%, a viability, T/C (second compound 1 µM, first compound 0.001 µM) of 13.1% and a viability, T/C (second compound 1 µM, first compound 0.00316 µM) of 9.44%. It also gave a viability, T/C (second compound 1 µM, first compound 0.01 µM) of 7.15%, a viability, T/C [18] of 6.35% and a viability, T/C (second compound 3.16 µM, first compound 0.0001 µM) of 22.9%. It also gave a viability, T/C (second compound 3.16 µM, first compound 0.000316 µM) of 15.7%, a viability, T/C (second compound 3.16 µM, first compound 0.001 µM) of 11.9% and a viability, T/C (second compound 3.16 µM, first compound 0.00316 µM) of 8.12%. The viability, T/C (second compound 3.16 µM, first compound 0.01 µM) was 7.15%, the viability, T/C [24] was 5.35% and the viability, T/C (second compound 10 µM, first compound 0.0001 µM) was 18.3%. It also gave a viability, T/C (second compound 10 µM, first compound 0.000316 µM) of 14.1%, a viability, T/C (second compound 10 µM, first compound 0.001 µM) of 9.59% and a viability, T/C (second compound 10 µM, first compound 0.00316 µM) of 7.02%. For the same compound, the viability, T/C (second compound 10 µM, first compound 0.01 µM) was 5.62% and the viability, T/C [30] was 4.49%.
In the case of `COC(=O)c1ccc2c(C(=Nc3ccc(N(C)C(=O)CN4CCN(C)CC4)cc3)c3ccccc3)c(O)[nH]c2c1`, the viability, T/C (compound 3.16 µM) is reported as 6.78% [middle of 5 runs] and the viability, T/C (compound 10 µM) is reported as 0.34% [middle of 5 runs].
